# Assay results published in PMC7796184, “Phytochemical Characterization, In Vitro Anti-Inflammatory, Anti-Diabetic, and Cytotoxic Activities of the Edible Aromatic Plant; Pulicaria jaubertii” (Molecules, 2021).
# Assays:
# [1] = tested on: U937 human monocytes; assay: Histamine release assay (EIA kit) in PMA-treated U937 cells; type: cell-based; details: U-937, 20 nM Phorbol Myristate Acetate, 1 h, triplicate, read-out: Histamine release inhibition IC50
# Protocol: In accordance with literature, extracts or standard diclofenac (7.81–1000 μg/mL) were added to U937 cells seeded in a 96-well plate in a concentration of 50,000 in presence or absence of 20 nM Phorbol Myristate Acetate. After 1 h, the treated and untreated cell cultures supernatants were collected and centrifuged at 10,000 rpm for 5 min at 4 °C. Then the samples were evaluated for released histamine by a commercially available EIA kit (SPI-Bio, Montigny le Bretonneux, France).
# [2] = tested on: red blood cells (RBCs); assay: Membrane stabilizing activity, hypotonic solution-induced hemolysis of RBCs; type: cell-based, rats; details: Erythrocyte, 10 min; rat RBCs, hypotonic solution pH 7.4, 10 min; triplicate; read-out: Membrane stabilization IC50 (inhibition of RBCs hemolysis)
# Protocol: The method was conducted according to the literature. Erythrocyte suspension was prepared by withdrawing blood samples from rats with heparinized syringes through cardiac puncture. Then, phosphate buffer was used to wash blood samples three times with centrifugation after each washing at 3000 rpm for 10 min. […] Control samples were prepared by similar manner without extracts or indomethacin. Afterward, previous mixtures were withstanding for 10 min in room condition and subjected to 10 min centrifugation at 3000 rpm.
# [3] = tested on: hepatocarcinoma (HepG-2) cell line; assay: cells; details: Homo sapiens, HepG2, read-out: Cytotoxicity IC50
# Protocol: (§1) All cells were obtained from the American Type Culture Collection (ATCC, Rockville, MD, USA) and were cultured on RPMI 1640 medium supplemented with 10% inactivated fetal calf serum and 50 μg/mL gentamycin. The cells were maintained at 37 °C in a humidified atmosphere with 5% CO2 and were sub cultured two to three times a week. Cell viability percentage was calculated by the equation: Cell viability % = Ac/At × 100(5) where Ac = Absorbance obtained from of control cells, At = Absorbance obtained from treated cells.
# [4] = tested on: breast carcinoma (MCF-7) cell line; assay: cells; details: Homo sapiens, MCF7, read-out: Cytotoxicity IC50
# Protocol: as §1
# [5] = tested on: prostate carcinoma (PC-3) cell line; assay: cells; details: Homo sapiens, PC-3, read-out: Cytotoxicity IC50
# Protocol: as §1
smiles,measurement,setting,value
O=C(O)Cc1ccccc1Nc1c(Cl)cccc1Cl [Diclofenac],IC50,[1],17.9 ± 1.6 µg/mL
COc1ccc2c(c1)c(CC(=O)O)c(C)n2C(=O)c1ccc(Cl)cc1 [Indomethacin],IC50,[2],17 ± 0.72 µg/mL
CC[C@]1(O)C[C@@H]2CN(CCc3c([nH]c4ccccc34)[C@@](C(=O)OC)(c3cc4c(cc3OC)N(C)[C@H]3[C@@](O)(C(=O)OC)[C@H](OC(C)=O)[C@]5(CC)C=CCN6CC[C@]43[C@@H]65)C2)C1 [Vinblastine],IC50,[3],4.6 ± 0.17 µg/mL
same,IC50,[4],4.6 ± 0.18 µg/mL
same,IC50,[5],5.5 ± 0.4 µg/mL
